Measured values: patent publication US20260250318A1, “COMPOSITIONS AND METHODS FOR CROSSING THE BLOOD BRAIN BARRIER” (VOYAGER THERAPEUTICS, INC., priority 2022, published 2026)

Tested on: brain
Assay: Maturation of TTM-001 capsid, NGS enrichment in brain of CD-1 Outbred mice
Type: in vivo
Settings: NGS fold-enrichment of TTM-001 matured AAV capsid variants in the brain of CD-1 Outbred mice; intravenous 1.0×10^12 VG/dose; 14 days in life; RNA; relative to non-matured TTM-001 control
Procedure, shortened: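 Brain enrichment read by NGS after RNA extraction and RT-PCR, expressed as fold ratio over the matching parental capsid (TTM-001 or TTM-002). Libraries, mutated around loop IV positions 449/450–466, were injected intravenously (tail vein, 1.0×10^12 VG/dose) into three female CD-1 mice; brains harvested at 14 days.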

Sequence | Fold enrichment over TTM-001
KTINGSGSPHSKRSLQQT | 2.270 fold
KTINGSGSPHSKRSMQQT | 3.561 fold
KTINGSGSPHSKRSNQQT | 2.886 fold
KTINGSGSPHSKRSWQQT | 3.838 fold
KTINGSGSPHSKRTAQQT | 2.331 fold
KTINGSGSPHSKRTFQQT | 3.879 fold
KTINGSGSPHSKRTLQQT | 2.583 fold
KTINGSGSPHSKRTPQQT | 3.169 fold
KTINGSGSPHSKRTSQQT | 2.857 fold
KTINGSGSPHSKRTYQQT | 2.870 fold
KTINGSGSPHSKRVGQQT | 2.190 fold
KTINGSGSPHSKRVLQQT | 2.035 fold
KTINGSGSPHSKRVPQQT | 3.048 fold
KTINGSGSPHSKRVSQQT | 2.196 fold
KTINGSGSPHSKSARQQT | 2.067 fold
KTINGSGSPHSKSCAQQT | 2.348 fold
KTINGSGSPHSKSERQQT | 2.263 fold
KTINGSGSPHSKSFRQQT | 3.426 fold
KTINGSGSPHSKSHRQQT | 2.145 fold
KTINGSGSPHSKSIRQQT | 2.728 fold
KTINGSGSPHSKSLKQQT | 2.013 fold
KTINGSGSPHSKSNKQQT | 2.006 fold

Sequence | Fold enrichment over TTM-001
KTINGSGSPHSKSRHQQT | 2.685 fold
KTINGSGSPHSKSRRQQT | 4.175 fold
KTINGSGSPHSKSRWQQT | 3.698 fold
KTINGSGSPHSKSVRQQT | 2.259 fold
KTINGSGSPHSKTCLQQT | 3.717 fold
KTINGSGSPHSKTCSQQT | 2.430 fold
KTINGSGSPHSKTGRQQT | 2.259 fold
KTINGSGSPHSKTIRQQT | 2.453 fold
KTINGSGSPHSKTLRQQT | 3.788 fold
KTINGSGSPHSKTNRQQT | 2.169 fold
KTINGSGSPHSKTRAQQT | 2.223 fold
KTINGSGSPHSKTRLQQT | 2.145 fold
KTINGSGSPHSKTRMQQT | 2.011 fold
KTINGSGSPHSKTSRQQT | 2.132 fold
KTINGSGSPHSKVARQQT | 2.136 fold
KTINGSGSPHSKVGRQQT | 3.255 fold
KTINGSGSPHSKVIRQQT | 2.760 fold
KTINGSGSPHSKVKPQQT | 2.778 fold
KTINGSGSPHSKVPKQQT | 2.924 fold
KTINGSGSPHSKVRAQQT | 2.412 fold
KTINGSGSPHSKVRVQQT | 2.034 fold
KTINGSGSPHSKVSRQQT | 2.108 fold

Sequence | Fold enrichment over TTM-001
KTINGSGSPHSKVTRQQT | 2.397 fold
KTINGSGSPHSKWLLQQT | 4.521 fold
KTINGSGSPHSKWLVQQT | 2.333 fold
KTINGSGSPHSKWPGQQT | 2.477 fold
KTINGSGSPHSKWSLQQT | 2.453 fold
KTINGSGSPHSKWTLQQT | 2.039 fold
KTINGSGSPHSKWVSQQT | 2.089 fold
KTINGSGSPHSKYPSQQT | 3.114 fold
KTINGSGSPHSLCQNQQT | 2.285 fold
KTINGSGSPHSLCSNQQT | 3.413 fold
KTINGSGSPHSLFANQQT | 2.365 fold
KTINGSGSPHSLFLNQQT | 3.358 fold
KTINGSGSPHSLFPNQQT | 2.106 fold
KTINGSGSPHSLFRNQQT | 4.037 fold
KTINGSGSPHSLLCNQQT | 3.644 fold
KTINGSGSPHSLLWNQQT | 7.983 fold
KTINGSGSPHSLLYNQQT | 2.158 fold
KTINGSGSPHSLRFNQQT | 4.765 fold
KTINGSGSPHSLRHNQQT | 2.980 fold
KTINGSGSPHSLRRNQQT | 4.985 fold
KTINGSGSPHSLRSNQQT | 2.778 fold
KTINGSGSPHSLRYNQQT | 2.462 fold

Sequence | Fold enrichment over TTM-001
KTINGSGSPHSLSCNQQT | 2.605 fold
KTINGSGSPHSLSWNQQT | 2.588 fold
KTINGSGSPHSLTWNQQT | 2.698 fold
KTINGSGSPHSLVFNQQT | 2.019 fold
KTINGSGSPHSLWLNQQT | 4.412 fold
KTINGSGSPHSLWQNQQT | 2.037 fold
KTINGSGSPHSLWSNQQT | 4.467 fold
KTINGSGSPHSLYLNQQT | 3.264 fold
KTINGSGSPHSMFPNQQT | 2.419 fold
KTINGSGSPHSMLYNQQT | 2.808 fold
KTINGSGSPHSMYLNQQT | 2.000 fold
KTINGSGSPHSPLWNQQT | 2.562 fold
KTINGSGSPHSRGRNQQT | 4.961 fold
KTINGSGSPHSRKLNQQT | 3.646 fold
KTINGSGSPHSRKQNQQT | 2.162 fold
KTINGSGSPHSRLFNQQT | 2.542 fold
KTINGSGSPHSRLKNQQT | 3.156 fold
KTINGSGSPHSRLRNQQT | 3.851 fold
KTINGSGSPHSRPRNQQT | 2.164 fold
KTINGSGSPHSRRLNQQT | 3.251 fold
KTINGSGSPHSRRQNQQT | 2.166 fold
KTINGSGSPHSRRSNQQT | 2.851 fold

Sequence | Fold enrichment over TTM-001
KTINGSGSPHSRRVNQQT | 2.676 fold
KTINGSGSPHSRSRNQQT | 3.784 fold
KTINGSGSPHSRTRNQQT | 2.912 fold
KTINGSGSPHSRTYNQQT | 2.009 fold
KTINGSGSPHSRVRNQQT | 2.540 fold
KTINGSGSPHSRWQNQQT | 3.372 fold
KTINGSGSPHSRYSNQQT | 2.536 fold
KTINGSGSPHSSCLNQQT | 2.471 fold
KTINGSGSPHSSCQNQQT | 2.365 fold
KTINGSGSPHSSKRNQQT | 2.978 fold
KTINGSGSPHSSLCNQQT | 2.592 fold
KTINGSGSPHSSLWNQQT | 3.179 fold
KTINGSGSPHSSRKNQQT | 2.585 fold
KTINGSGSPHSSRRNQQT | 4.920 fold
KTINGSGSPHSSWANQQT | 2.264 fold
KTINGSGSPHSTRLNQQT | 2.860 fold
KTINGSGSPHSTRPNQQT | 2.598 fold
KTINGSGSPHSTRQNQQT | 2.212 fold
